{"source": "DBAASP", "test_in_all_cases": "≥ marks a high value that may be exact or a test limit, other limits are often not marked, values filed in µg/mL are converted to µM", "key": {"[1]": {"system": "Staphylococcus aureus KCTC 1621"}, "[2]": {"system": "Enterococcus faecalis VR"}, "[3]": {"system": "Staphylococcus epidermidis KCTC 1917"}, "[4]": {"system": "Staphylococcus aureus ATCC 6538P"}, "[5]": {"system": "Bacillus subtilis KCTC 3068"}, "[6]": {"system": "Enterococcus faecium"}, "[7]": {"system": "Enterococcus faecium VR"}, "[8]": {"system": "Enterococcus faecalis"}, "[9]": {"system": "Salmonella typhimurium KCTC 1926"}, "[10]": {"system": "Staphylococcus aureus MR"}, "[11]": {"system": "Pseudomonas aeruginosa KCTC 1637"}, "[12]": {"system": "Escherichia coli JM109"}, "[13]": {"system": "Escherichia coli KCTC 1682"}, "[14]": {"system": "Staphylococcus aureus"}, "[15]": {"system": "Klebsiella pneumoniae M6"}, "[16]": {"system": "Staphylococcus aureus NCTC 9144"}, "[17]": {"system": "Enterococcus faecalis NCTC 775"}, "[18]": {"system": "Klebsiella pneumoniae NCTC 13368"}, "[19]": {"system": "Xanthomonas axonopodis pv. phaseoli"}, "[20]": {"system": "Acinetobacter baumannii AYE"}, "[21]": {"system": "Enterococcus faecalis NCTC 12201"}, "[22]": {"system": "Pseudomonas syringae pv. tomato"}, "[23]": {"system": "Pseudomonas aeruginosa NCTC 13437"}, "[24]": {"system": "Pseudomonas aeruginosa PAO1"}, "[25]": {"system": "Escherichia coli NCTC 12923"}, "[26]": {"system": "Staphylococcus aureus 15"}, "[27]": {"system": "Enterococcus faecalis NCTC 12204"}, "[28]": {"system": "Acinetobacter baumannii ATCC 17987"}, "[29]": {"system": "Pseudomonas aeruginosa CICC 21630"}, "[30]": {"system": "Escherichia coli K88"}, "[31]": {"system": "Salmonella enterica subsp. enterica serovar Pullorum C79-13"}, "[32]": {"system": "Escherichia coli"}, "[33]": {"system": "Acinetobacter baumannii"}, "[34]": {"system": "Escherichia coli UB1005"}, "[35]": {"system": "Pseudomonas aeruginosa CICC 21625"}, "[36]": {"system": "Klebsiella pneumoniae"}, "[37]": {"system": "Pseudomonas aeruginosa ATCC 27853"}, "[38]": {"system": "Escherichia coli ATCC 25922"}, "[39]": {"system": "Salmonella enterica subsp. enterica serovar Typhimurium ATCC 14028"}, "[40]": {"system": "Salmonella enterica subsp. enterica serovar Typhimurium C77-31"}, "[41]": {"system": "Pseudomonas aeruginosa"}, "[42]": {"system": "Escherichia coli K99"}, "[43]": {"system": "Staphylococcus aureus SR1550"}, "[44]": {"system": "Escherichia coli K-12 594"}}}
{"smiles": "CC[C@H](C)[C@H](NC(=O)[C@H](C)NC(=O)[C@H](CC(C)C)NC(=O)[C@H](CS)NC(=O)[C@H](Cc1cnc[nH]1)NC(=O)[C@H](C)NC(=O)[C@H](C)N)C(=O)NCC(=O)N[C@@H](CCCN=C(N)N)C(=O)N[C@@H](CCCN=C(N)N)C(N)=O", "note": "[AAHCLAIGRR]", "values": [{"measurement": "MIC", "setting": "[1]", "result": 7.5, "unit": "µM"}, {"measurement": "MIC", "setting": "[2]", "result": 30, "unit": "µM"}, {"measurement": "MIC", "setting": "[3]", "result": 15, "unit": "µM"}, {"measurement": "MIC", "setting": "[4]", "result": 4.68, "unit": "µM"}, {"measurement": "MIC", "setting": "[5]", "result": 7.5, "unit": "µM"}, {"measurement": "MIC", "setting": "[6]", "result": 15, "unit": "µM"}, {"measurement": "MIC", "setting": "[7]", "result": 15, "unit": "µM"}, {"measurement": "MIC", "setting": "[8]", "result": 15, "unit": "µM"}, {"measurement": "MIC", "setting": "[9]", "result": 15, "unit": "µM"}, {"measurement": "MIC", "setting": "[10]", "result": 30, "unit": "µM"}, {"measurement": "MIC", "setting": "[11]", "result": 15, "unit": "µM"}, {"measurement": "MIC", "setting": "[12]", "result": 15, "unit": "µM"}, {"measurement": "MIC", "setting": "[13]", "result": 15, "unit": "µM"}, {"measurement": "MIC", "setting": "[14]", "result": "> 60", "unit": "µM"}]}
{"smiles": "CC[C@H](C)[C@H](NC(=O)[C@H](CCC(=O)O)NC(=O)[C@H](CC(N)=O)NC(=O)[C@H](CCCCN)NC(=O)[C@H](CC(C)C)NC(=O)[C@H](CCCCN)NC(=O)[C@H](CCCCN)NC(=O)[C@H](CCCN=C(N)N)NC(=O)[C@@H](NC(=O)[C@H](CCCCN)NC(=O)[C@H](CCC(=O)O)NC(=O)[C@H](CCCCN)NC(=O)CNC(=O)[C@H](C)N)[C@@H](C)CC)C(=O)N[C@@H](CCCCN)C(=O)N[C@@H](CCCCN)C(=O)N[C@@H](CCCCN)C(=O)NCC(=O)N[C@@H](CCCN=C(N)N)C(=O)N[C@@H](CCCCN)C(=O)N[C@@H](C)C(=O)N[C@H](C(=O)N[C@H](C(=O)N[C@@H](C)C(=O)N[C@@H](Cc1c[nH]c2ccccc12)C(=O)O)[C@@H](C)CC)C(C)C", "note": "[AGKEKIRKKLKNEIKKKGRKAVIAW]", "values": [{"measurement": "MIC", "setting": "[15]", "result": "≥ 43.8", "unit": "µM"}, {"measurement": "MIC", "setting": "[16]", "result": "≥ 43.8", "unit": "µM"}, {"measurement": "MIC", "setting": "[17]", "result": "≥ 43.8", "unit": "µM"}, {"measurement": "MIC", "setting": "[18]", "result": "≥ 43.8", "unit": "µM"}, {"measurement": "MIC", "setting": "[19]", "result": 0.342, "unit": "µM"}, {"measurement": "MIC", "setting": "[20]", "result": 21.9, "unit": "µM"}, {"measurement": "MIC", "setting": "[21]", "result": "≥ 43.8", "unit": "µM"}, {"measurement": "MIC", "setting": "[22]", "result": 1.37, "unit": "µM"}, {"measurement": "MIC", "setting": "[23]", "result": "≥ 43.8", "unit": "µM"}, {"measurement": "MIC", "setting": "[24]", "result": "> 43.8", "unit": "µM"}, {"measurement": "MIC", "setting": "[25]", "result": 11, "unit": "µM"}, {"measurement": "MIC", "setting": "[26]", "result": "≥ 43.8", "unit": "µM"}, {"measurement": "MIC", "setting": "[27]", "result": "≥ 43.8", "unit": "µM"}, {"measurement": "MIC", "setting": "[28]", "result": 21.9, "unit": "µM"}]}
{"smiles": "CC[C@H](C)[C@H](NC(=O)[C@H](CCC(=O)O)NC(=O)[C@H](CC(N)=O)NC(=O)[C@H](CCCCN)NC(=O)[C@H](CC(C)C)NC(=O)[C@H](Cc1ccc(O)cc1)NC(=O)[C@H](CCC(N)=O)NC(=O)[C@H](CCCN=C(N)N)NC(=O)[C@@H](NC(=O)[C@@H](NC(=O)[C@H](CCC(=O)O)NC(=O)[C@H](CCCCN)NC(=O)CNC(=O)[C@H](C)N)[C@@H](C)O)[C@@H](C)CC)C(=O)N[C@@H](CCCCN)C(=O)N[C@@H](CCCCN)C(=O)N[C@@H](CCCCN)C(=O)NCC(=O)N[C@@H](CCCN=C(N)N)C(=O)N[C@@H](CCCCN)C(=O)N[C@@H](C)C(=O)N[C@H](C(=O)N[C@H](C(=O)N[C@@H](C)C(=O)N[C@@H](Cc1c[nH]c2ccccc12)C(=O)O)[C@@H](C)CC)C(C)C", "note": "[AGKETIRQYLKNEIKKKGRKAVIAW]", "values": [{"measurement": "MIC", "setting": "[15]", "result": "≥ 43.7", "unit": "µM"}, {"measurement": "MIC", "setting": "[16]", "result": "≥ 43.7", "unit": "µM"}, {"measurement": "MIC", "setting": "[17]", "result": "≥ 43.7", "unit": "µM"}, {"measurement": "MIC", "setting": "[18]", "result": "≥ 43.7", "unit": "µM"}, {"measurement": "MIC", "setting": "[19]", "result": 1.37, "unit": "µM"}, {"measurement": "MIC", "setting": "[20]", "result": 10.9, "unit": "µM"}, {"measurement": "MIC", "setting": "[21]", "result": "≥ 43.7", "unit": "µM"}, {"measurement": "MIC", "setting": "[22]", "result": 5.46, "unit": "µM"}, {"measurement": "MIC", "setting": "[23]", "result": "≥ 43.7", "unit": "µM"}, {"measurement": "MIC", "setting": "[24]", "result": "> 43.7", "unit": "µM"}, {"measurement": "MIC", "setting": "[25]", "result": 21.8, "unit": "µM"}, {"measurement": "MIC", "setting": "[26]", "result": "≥ 43.7", "unit": "µM"}, {"measurement": "MIC", "setting": "[27]", "result": "≥ 43.7", "unit": "µM"}, {"measurement": "MIC", "setting": "[28]", "result": 21.8, "unit": "µM"}]}
{"smiles": "CC[C@H](C)[C@H](N)C(=O)N[C@@H](CCCCN)C(=O)N1CCC[C@H]1C(=O)N[C@H](C(=O)N[C@H](C(=O)N[C@@H](CCCCN)C(=O)N1CCC[C@H]1C(=O)N[C@H](C(=O)N[C@H](C(=O)N[C@@H](CCCCN)C(=O)N1CCC[C@H]1C(=O)N[C@H](C(=O)N[C@H](C(=O)N[C@@H](CCCCN)C(=O)N1CCC[C@H]1C(=O)N[C@H](C(=O)N[C@H](C(=O)N[C@@H](CCCCN)C(=O)N1CCC[C@H]1C(=O)N[C@H](C(=O)N[C@H](C(=O)N[C@@H](CCCCN)C(=O)N1CCC[C@H]1C(=O)N[C@H](C(N)=O)[C@@H](C)CC)[C@@H](C)CC)[C@@H](C)CC)[C@@H](C)CC)[C@@H](C)CC)[C@@H](C)CC)[C@@H](C)CC)[C@@H](C)CC)[C@@H](C)CC)[C@@H](C)CC)[C@@H](C)CC", "note": "[IKPIIKPIIKPIIKPIIKPIIKPI]", "values": [{"measurement": "MIC", "setting": "[29]", "result": "≥ 64", "unit": "µM"}, {"measurement": "MIC", "setting": "[30]", "result": 4, "unit": "µM"}, {"measurement": "MIC", "setting": "[31]", "result": "≥ 64", "unit": "µM"}, {"measurement": "MIC", "setting": "[32]", "result": 64, "unit": "µM"}, {"measurement": "MIC", "setting": "[33]", "result": 16, "unit": "µM"}, {"measurement": "MIC", "setting": "[34]", "result": 16, "unit": "µM"}, {"measurement": "MIC", "setting": "[35]", "result": "≥ 64", "unit": "µM"}, {"measurement": "MIC", "setting": "[36]", "result": "> 64", "unit": "µM"}, {"measurement": "MIC", "setting": "[37]", "result": "> 64", "unit": "µM"}, {"measurement": "MIC", "setting": "[38]", "result": 16, "unit": "µM"}, {"measurement": "MIC", "setting": "[39]", "result": 64, "unit": "µM"}, {"measurement": "MIC", "setting": "[40]", "result": "≥ 64", "unit": "µM"}, {"measurement": "MIC", "setting": "[41]", "result": "> 64", "unit": "µM"}, {"measurement": "MIC", "setting": "[24]", "result": "> 64", "unit": "µM"}, {"measurement": "MIC", "setting": "[42]", "result": 8, "unit": "µM"}]}
{"smiles": "CC(C)C[C@H](NC(=O)[C@H](CC(C)C)NC(=O)[C@H](CC(C)C)NC(=O)[C@H](CC(C)C)NC(=O)[C@H](CC(C)C)NC(=O)[C@H](CCCCN)NC(=O)[C@@H](N)CCCCN)C(=O)N[C@@H](CCCCN)C(=O)N[C@@H](CCCCN)C(N)=O", "note": "[KKLLLLLKK]", "values": [{"measurement": "MIC", "setting": "[4]", "result": 14.6, "unit": "µM"}, {"measurement": "MIC", "setting": "[43]", "result": 31.9, "unit": "µM"}, {"measurement": "MIC", "setting": "[44]", "result": 31.9, "unit": "µM"}]}
{"smiles": "CC(C)C[C@H](NC(=O)[C@H](CCCN=C(N)N)NC(=O)[C@H](CC(C)C)NC(=O)[C@H](CC(C)C)NC(=O)[C@H](CC(C)C)NC(=O)[C@H](CC(C)C)NC(=O)[C@H](CC(C)C)NC(=O)[C@H](CCCCN)NC(=O)[C@H](CC(C)C)NC(=O)[C@@H](N)CCCN=C(N)N)C(=O)N[C@@H](CCCCN)C(N)=O", "note": "[RLKLLLLLRLK]", "values": [{"measurement": "MIC", "setting": "[4]", "result": 0.725, "unit": "µM"}, {"measurement": "MIC", "setting": "[43]", "result": 21.8, "unit": "µM"}, {"measurement": "MIC", "setting": "[44]", "result": 14.5, "unit": "µM"}]}
{"smiles": "CC(C)C[C@H](NC(=O)[C@H](CCCN=C(N)N)NC(=O)[C@H](CC(C)C)NC(=O)[C@H](CC(C)C)NC(=O)[C@H](CC(C)C)NC(=O)[C@H](CCCCN)NC(=O)[C@H](CC(C)C)NC(=O)[C@@H](N)CCCN=C(N)N)C(=O)N[C@@H](CCCCN)C(N)=O", "note": "[RLKLLLRLK]", "values": [{"measurement": "MIC", "setting": "[4]", "result": 1.74, "unit": "µM"}, {"measurement": "MIC", "setting": "[43]", "result": 30.4, "unit": "µM"}, {"measurement": "MIC", "setting": "[44]", "result": 26, "unit": "µM"}]}
